The values below come from PMC11346425, “Sulfoquinovosyl diacylglycerol is required for dimerisation of the Rhodobacter sphaeroides reaction centre-light harvesting 1 core complex” (Biochemical Journal, 2024).

Molecules are shown by their SMILES.

Holding throughout (assay): light-driven cytochrome c2 oxidation at […] nm, steady state
Common to all, as to format: biochemical

The target in assay [1] is T1, dimeric RC-LH1 core complex (Cereibacter sphaeroides, UniProt Q3J1A5+Q3J1A6).
T1 construct: gene pufL; native, beta-DDM-solubilised membranes, sucrose gradient dimer band; 2 RC, S-shaped LH1 of 28 subunits; with Reaction center protein M chain; Reaction center protein H chain; Light-harvesting protein B-875 alpha chain; Light-harvesting protein B-875 beta chain; Intrinsic membrane protein PufX; Protein-Y; Protein-Z
The settings on record: 50 uM ubiquinone-2, 5 uM reduced cytochrome c2, 810 nm LED, pH 8, 0.03% beta-DDM; electron acceptor; 0.01 uM RC-LH1.

Assay [2] deals with T2, monomeric RC-LH1 core complex (RC3-LH1_14-XY) (Cereibacter sphaeroides, UniProt Q3J1A5+Q3J1A6).
T2 construct: gene pufL; native, beta-DDM-solubilised membranes, sucrose gradient monomer band; 1 RC, C-shaped LH1 of 14 subunits; with Reaction center protein M chain; Reaction center protein H chain; Light-harvesting protein B-875 alpha chain; Light-harvesting protein B-875 beta chain; Intrinsic membrane protein PufX; Protein-Y
The settings on record: 50 uM ubiquinone-2, 5 uM reduced cytochrome c2, 810 nm LED, pH 8, 0.03% beta-DDM; electron acceptor; 0.05 uM RC-LH1.

Assay [3] addresses T2, monomeric RC-LH1 core complex (RC3-LH1_14-XY). The settings on record: 50 uM ubiquinone-2, 5 uM reduced cytochrome c2, 810 nm LED, pH 8, 0.03% beta-DDM; electron acceptor.

With `COC1=C(OC)C(=O)C(C/C=C(\C)CCC=C(C)C)=C(C)C1=O` [ubiquinone-2], the “light-driven cytochrome c2 oxidation at 550 nm, steady state” value in assay [1] is “light-driven oxidation rate of cytochrome c2 by monomeric and dimeric complexes in the presence of ubiquinone-2”; in assay [2] it was “Turnover assays for monomeric complexes from WT, PufX R49L R53L, ΔolsBA and ΔsqdB mutants”; in assay [3] it was “light-driven oxidation rate of cytochrome c2 by monomeric and dimeric complexes in the presence of ubiquinone-2”.
